# Entries after “also recorded” stand apart in the source; their conditions may differ. Like-named read-outs stand apart in the source and are kept apart here. Marks after values point to notes of the source that are not given here.
# Legend:
# [1] = tested on: ferrets; conditions: for Incidence / Retches / Vomits / Latency responders only: 60 min prior; for Retches / Vomits: 2 h observation
# Source text: The anti-emetic activity of alpha-2 adrenoceptor agonists is preferably measured using, for instance, an in vivo emesis assay in the ferret. A variety of emetic stimuli may be employed including, for example, treatment with type IV cyclic nucleotide phosphodiesterase (PDE4) inhibitors (see Robichaud et al, Neuropharmacology (1999) 38, 289-297).
# (§1) Fasting was not a pre-requisite of these experiments.
# [2] = tested on: ferrets; test: Behavioural effects observed following the administration of RS14203 in ferrets; assay type: in vivo, ferret (Mustela putorius furo); conditions: RS14203 1 mg/kg p.o.
# Source text: as §1
# [3] = tested on: ferrets; conditions: doses ranging from 62.5-250 μg/kg
# Protocol: Male adult ferrets (Mustela putorius furo; 1-2 kg, Marshall Farms, North Rose, N.Y., U.S.A.) were used and experiments were conducted according to procedures previously described (Robichaud et al, 1999, supra). The ferrets were housed in a humidity and temperature controlled environment with food (Marshall Premium ferret diet; Marshall Farms, North Rose, N.Y., U.S.A.) and water provided ad libitum. On the day of the experiment, ferrets were put into individual cages and left to habituate for at least 30 minutes. Fasting was not a pre-requisite of these experiments. Pre-treatment with a test compound or vehicle was performed using a subcutaneous, an intraperitoneal or an oral administration, 60 minutes prior to the emetic challenge. Emesis was induced by PDE4 inhibitors administered orally (dosing volume=1 ml/kg) at a dose known to cause emesis (Robichaud et al, 1999, supra). Drugs were freshly prepared on the day of the experiment. […] During that time, the number of retches (i.e. rhythmic contraction of the abdomen) and vomiting movements (i.e. oral expulsion or attempt to expel solid/liquid matter from the gastrointestinal tract) were recorded.
# [4] = tested on: elderly patients; conditions: elderly patients undergoing intraocular surgery; cited from earlier work
# [5] = tested on: dogs; conditions: i.m.; cited from earlier work
# [6] = tested on: children (3-12 yr); conditions: cited from earlier work
# [7] = tested on: ferrets; test: Administration of alpha-2 adrenoceptor antagonists to ferrets (retching and vomiting); conditions: for Retches / Vomits / Latency responders only: mean±SEM; for Emesis following administration (in words): ferrets
# Protocol: The ferrets were housed in a humidity and temperature controlled environment with food (Marshall Premium ferret diet; Marshall Farms, North Rose, N.Y., U.S.A.) and water provided ad libitum. On the day of the experiment, ferrets were put into individual cages and left to habituate for at least 30 minutes. Fasting was not a pre-requisite of these experiments. Pre-treatment with a test compound or vehicle was performed using a subcutaneous, an intraperitoneal or an oral administration, 60 minutes prior to the emetic challenge. […] Drugs were freshly prepared on the day of the experiment. […] During that time, the number of retches (i.e. rhythmic contraction of the abdomen) and vomiting movements (i.e. oral expulsion or attempt to expel solid/liquid matter from the gastrointestinal tract) were recorded.
# Data is expressed as mean±SEM.
# [8] = tested on: humans; conditions: cited from earlier work
# [9] = emetic agent CT-2450 30 mg/kg p.o., pre-treatment 250 μg/kg s.c.
# [10] = emetic agent R-rolipram 3 mg/kg p.o., pre-treatment 250 μg/kg s.c.
# [11] = emetic agent R-rolipram 3 mg/kg p.o., pre-treatment 250 μg/kg s.c., mean ± SEM
# [12] = emetic agent RS14203 1 mg/kg p.o., pre-treatment 62.5 μg/kg s.c., mean ± SEM
# [13] = emetic agent RS14203 1 mg/kg p.o., pre-treatment 125 μg/kg s.c.
# [14] = emetic agent RS14203 1 mg/kg p.o., pre-treatment 125 μg/kg s.c., mean ± SEM
# [15] = emetic agent RS14203 1 mg/kg p.o., pre-treatment 250 μg/kg s.c.
# [16] = emetic agent RS14203 1 mg/kg p.o., pre-treatment 250 μg/kg s.c., mean ± SEM
# [17] = pre-treatment 250 μg/kg s.c., listed as Clonidine
compound,measurement,setting,value
Clc1cccc(Cl)c1N=C1NCCN1 [clonidine],Effect on emesis induced by CT-2450,"[1]; CT-2450 30 mg/kg p.o., pre-treatment 250 μg/kg, all animals treated",abolished emesis
same,Animals with complete protection against R-rolipram-induced emesis,"[1]; R-rolipram 3 mg/kg p.o., pre-treatment 250 μg/kg",two out of three
same,Animals showing complete protection against RS14203-induced emesis,"[1]; RS14203 1 mg/kg p.o., pre-treatment 250 μg/kg",five out of six
same,Effect on number of retches and vomits induced by RS14203,"[1]; RS14203 1 mg/kg p.o., pre-treatment 62.5-250 μg/kg",dose-dependently decreased
same,Incidence,[1]; [9],0/5
same,Retches,[1]; [9],0* n° episodes
same,Vomits,[1]; [9],0* n° episodes
same,Incidence,[1]; [10],1/3
same,Latency responders only,[1]; [10],5 min
same,Retches,[1]; [11],54.3 ± 54.3 n° episodes
same,Vomits,[1]; [11],5.7 ± 5.7 n° episodes
same,Incidence,"[1]; emetic agent RS14203 1 mg/kg p.o., pre-treatment 62.5 μg/kg s.c.",2/3
same,Retches,[1]; [12],9.3 ± 7.9 n° episodes
same,Vomits,[1]; [12],1.7 ± 1.2 n° episodes
same,Latency responders only,[1]; [12],55.0 ± 49.0 min
same,Incidence,[1]; [13],1/3
same,Latency responders only,[1]; [13],72 min
same,Retches,[1]; [14],2 ± 2 n° episodes
same,Vomits,[1]; [14],1 ± 1 n° episodes
same,Incidence,[1]; [15],1/6
same,Latency responders only,[1]; [15],111 min
same,Retches,[1]; [16],0.2 ± 0.2 n° episodes
same,Vomits,[1]; [16],0.2 ± 0.2 n° episodes
same,Effect on RS14203-induced gagging or clawing at the mouth,[2],no effect
same,Clawing at mouth,[2]; pre-treatment 62.5 μg/kg s.c.,2/3
same,Gagging,[2]; pre-treatment 62.5 μg/kg s.c.,1/3
same,Hyperventilation,[2]; pre-treatment 62.5 μg/kg s.c.,2/3
same,Salivation,[2]; pre-treatment 62.5 μg/kg s.c.,2/3
same,Clawing at mouth,[2]; pre-treatment 125 μg/kg s.c.,1/3
same,Gagging,[2]; pre-treatment 125 μg/kg s.c.,1/3
same,Hyperventilation,[2]; pre-treatment 125 μg/kg s.c.,2/3
same,Salivation,[2]; pre-treatment 125 μg/kg s.c.,1/3
same,Clawing at mouth,[2]; pre-treatment 250 μg/kg s.c.,5/6
same,Gagging,[2]; pre-treatment 250 μg/kg s.c.,5/6
same,Hyperventilation,[2]; pre-treatment 250 μg/kg s.c.,one out of six
same,Salivation,[2]; pre-treatment 250 μg/kg s.c.,none of the animals
same,Hyperventilation,[2]; [17],1/6
same,Salivation,[2]; [17],0/6
same,Emesis triggered by the compound by itself,[3],did not trigger emesis
same,Sedation following the administration,[3]; appeared dose-related,light sedation
same,Effect on emesis,[4],no effect on emesis
same,Sedation,[4],induced sedation
same,Emetic ED50,[5],0.025 mg/kg
same,Incidence and frequency of vomiting following strabismus surgery,[6],lower the incidence and frequency of vomiting
CS(=O)(=O)NCCN1C(=O)NC[C@]12CCN1CCc3c(oc4ccccc34)[C@@H]1C2 [MK-467],Incidence,[7]; 1 mg/kg p.o.,0/3
same,Retches,[7]; 1 mg/kg p.o.,0 n° episodes
same,Vomits,[7]; 1 mg/kg p.o.,0 n° episodes
same,Incidence,[7]; 3 mg/kg p.o.,1/3
same,Latency responders only,[7]; 3 mg/kg p.o.,12 min
same,Retches,[7]; 3 mg/kg p.o.,4 ± 4 n° episodes
same,Vomits,[7]; 3 mg/kg p.o.,0.3 ± 0.3 n° episodes
same,Incidence,[7]; 10 mg/kg po,2/3
same,Latency responders only,[7]; 10 mg/kg po,18.5 ± 2.5 min
same,Retches,[7]; 10 mg/kg po,12 ± 6 n° episodes
same,Vomits,[7]; 10 mg/kg po,1.3 ± 0.9 n° episodes
same,Emesis following administration (in words),[7],Emesis was also recorded
CN1CC[C@]2(CCN3CCc4c(oc5ccccc45)[C@@H]3C2)N(C)C1=O.Cl [MK-912],Incidence,[7]; 1 mg/kg p.o.,2/8
same,Latency responders only,[7]; 1 mg/kg p.o.,13.0 ± 5.0 min
same,Retches,[7]; 1 mg/kg p.o.,3.2 ± 2.3 n° episodes
same,Vomits,[7]; 1 mg/kg p.o.,0.4 ± 0.3 n° episodes
same,Emesis following administration (in words),[7],Emesis was also recorded
"COC(=O)[C@@H]1[C@H]2C[C@H]3c4[nH]c5ccccc5c4CCN3C[C@@H]2CC[C@@H]1O [Yohimbine, yohimbine]",Adverse effects following parenteral administration,[8],nausea and vomiting
same,Incidence,[7]; 3 mg/kg i.p.,3/3
same,Latency responders only,[7]; 3 mg/kg i.p.,7 ± 1 min
same,Retches,[7]; 3 mg/kg i.p.,18.7 ± 3.8 n° episodes
same,Vomits,[7]; 3 mg/kg i.p.,5.3 ± 1.8 n° episodes
same,Incidence,[7]; 3 mg/kg p.o.,3/4
same,Latency responders only,[7]; 3 mg/kg p.o.,30.3 ± 13.4 min
same,Retches,[7]; 3 mg/kg p.o.,9.8 ± 6.2 n° episodes
same,Vomits,[7]; 3 mg/kg p.o.,3.2 ± 1.2 n° episodes
same,Incidence,[7]; 3 mg/kg s.c.,2/3
same,Latency responders only,[7]; 3 mg/kg s.c.,9.5 ± 2.5 min
same,Retches,[7]; 3 mg/kg s.c.,29.7 ± 17.6 n° episodes
same,Vomits,[7]; 3 mg/kg s.c.,3.0 ± 1.7 n° episodes
same,Emesis following administration (in words),[7],induced retching and vomiting in all ferrets treated; also recorded: caused unexpected retching and vomiting
O=[N+]([O-])c1cccc(-c2cc(Cc3ccncc3)cc3cccnc23)c1 [RS14203],Behavioural effects produced in addition to emesis,[2],"salivation, hyperventilation, gagging and clawing at the mouth"

# — patent US6610720B2, “Method for treating or preventing emesis” (Merck Frosst Canada & Co., priority 2000, dated 2003)
